Consider six molecules from article PMC7376718, “Flavonoids isolated from the South African weed Chromolaena odorata (Asteraceae) have pharmacological activity against uropathogens” (BMC Complementary Medicine and Therapies, 2020).

Data set [1] relates to C. neoformans and A. fumigatus. Nature of the data set: Mean MIC over the fungal isolates. The class given is cell-based. An excerpt:
(§1) The cultures used were Escherichia coli (American Type Culture Collection, ATCC 25922) labelled as 1, E. coli isolates (B1989/17 and B1962/17) labelled as 2 and 3 from equine urine, collected from the Department of Veterinary Tropical Diseases, Faculty of Veterinary Science, University of Pretoria, South Africa, Klebsiella pneumoniae isolate from commercial chicken eggs, Enterococcus faecalis (ATCC 29212), Pseudomonas aeruginosa (ATCC 27853), Staphylococcus aureus (ATCC 29213), Candida albicans from a Gouldian finch, Aspergillus fumigatus from a chicken and Cryptococcus neoformans from a cheetah. These microbial strains were maintained on MHA or SDA for bacteria and fungi respectively, while the isolates were maintained on blood agar.
(§2) Ten mg/mL of each fraction and 1 mg/mL of isolated compounds were prepared in 10% DMSO and tested against S. aureus, E. coli, K. pneumoniae, E. faecalis, P. aeruginosa, C. albicans, C. neoformans and A. fumigatus. Cultures were prepared by inoculating each microbial strain from prepared agar plates into sterilized MHB for bacterial and SDB for fungi in sterile McCartney bottles respectively. The inoculums were placed in an orbital shaker incubator. Bacterial strains were incubated at 37 °C for 18 h. Each bacterial culture was diluted in fresh MHB and the absorbance was measured at a wavelength of 560 nm using a microplate reader (Epoch Biotek). The readings were compared to a McFarland standard No. 1 correlating to approximately 3 × 10^8 cfu/mL). For fungi strains, cultures were incubated at 30 °C for 24 h (C. albicans), 72 h (C. neoformans) and 120 h (A. fumigatus) respectively. The resultant cells and spores were washed with sterile normal saline and absorbance was measured at a wavelength of 560 nm and turbidity was adjusted to a McFarland standard 1.This was further diluted in a 1:10 ratio in SDB to a turbidity of 5 × 10^5 cfu/mL. These diluted cultures (bacterial and fungi) were used for the screening following the serial microdilution method of Eloff.

The test system of data set [2] is Candida albicans from a Gouldian finch. Nature of the data set: MIC, serial microdilution with INT. The class given is cell-based. The note with it: C. albicans, read-out: Minimum inhibitory concentration.
Excerpt: as §1, §2

In data set [3] the test system is Aspergillus fumigatus from a chicken. Nature of the data set: MIC, serial microdilution with INT. The class given is cell-based. The note with it: for MIC: Aspergillus fumigatus, read-out: Minimum inhibitory concentration.
Excerpt: as §1, §2
For orientation: In broth dilution the organism is exposed to a series of concentrations in liquid medium.

In data set [4] the test system is Cryptococcus neoformans from a cheetah. Nature of the data set: MIC, serial microdilution with INT. The following applies: C. neoformans, read-out: Minimum inhibitory concentration. The class given is cell-based.
Excerpt: as §1, §2

Data set [5] deals with S. aureus, E. coli (1), E. coli (2), E. coli (3), K. pneumoniae. Nature of the data set: Mean MIC over the bacterial strains. It counts as cell-based. The note with it: mean over the five bacterial strains of Table 3.
Excerpt: as §1, §2

The subject of data set [6] is E. coli (B1962/17) isolate from equine urine, E. coli (3). Nature of the data set: MIC, serial microdilution with INT. The note with it: Escherichia coli, read-out: Minimum inhibitory concentration. It counts as cell-based.
Excerpt: as §1, §2

Data set [7] has as its system E. coli (B1989/17) isolate from equine urine, E. coli (2). Nature of the data set: MIC, serial microdilution with INT. It counts as cell-based. The note with it: Escherichia coli, read-out: Minimum inhibitory concentration.
Excerpt: as §1, §2

Data set [8] deals with Klebsiella pneumoniae isolate from commercial chicken eggs. Nature of the data set: MIC, serial microdilution with INT. The class given is cell-based. The following applies: K. pneumoniae; for MIC: Klebsiella pneumoniae, read-out: Minimum inhibitory concentration.
Excerpt: as §1, §2

For data set [9], the system named is Staphylococcus aureus (ATCC 29213). Nature of the data set: MIC, serial microdilution with INT. The class given is cell-based. The note with it: ATCC29213, S. aureus, read-out: Minimum inhibitory concentration.
Excerpt: as §1, §2

Data set [10] deals with Escherichia coli (ATCC 25922), E. coli (1). Nature of the data set: MIC, serial microdilution with INT. The note with it: for MIC: Escherichia coli, ATCC25922, E. coli (1), read-out: Minimum inhibitory concentration. It counts as cell-based.
Excerpt: as §1, §2

Data set [11] deals with selected microbial strains. Nature of the data set: MIC summarised over the selected microbial strains. It counts as cell-based. The note with it: summary over bacterial and fungal strains.
Excerpt: as §1, with “These microbial strains were maintained on MHA or SDA for bacteria and fungi respectively, while the isolates were maintained on blood agar.” left out
Ten mg/mL of each fraction and 1 mg/mL of isolated compounds were prepared in 10% DMSO and tested against S. aureus, E. coli, K. pneumoniae, E. faecalis, P. aeruginosa, C. albicans, C. neoformans and A. fumigatus. […] Each bacterial culture was diluted in fresh MHB and the absorbance was measured at a wavelength of 560 nm using a microplate reader (Epoch Biotek). The readings were compared to a McFarland standard No. 1 correlating to approximately 3 × 10^8 cfu/mL). […] The resultant cells and spores were washed with sterile normal saline and absorbance was measured at a wavelength of 560 nm and turbidity was adjusted to a McFarland standard 1.This was further diluted in a 1:10 ratio in SDB to a turbidity of 5 × 10^5 cfu/mL. […]

Data set [12] can be described thus: in vitro. On the procedure: (§3) Different concentrations of the compounds ranging from 0.003 to 0.2 mg/mL were tested for cytotoxicity against three cell lines; Vero monkey kidney, C3A and Caco2. Vero cells were grown and maintained in MEM, supplemented with 0.1% gentamicin and 5% foetal calf serum, while Caco2 and C3A cells were grown and maintained in DMEM supplemented with 10% foetal calf serum, 1% non-essential amino acids and 1% penicillin-streptomycin. All cells were incubated in a 5% CO2 incubator at 37 °C. Doxorubicin chloride was used as positive control while 10% DMSO used in dissolving the test samples was used as the negative control. The 3-(4,5-dimethylthiazol)-2,5-diphenyl tetrazolium bromide (MTT) assay described by Mosmann with modification by McGaw et al. was used to determine the cytotoxicity of the test samples. The lethal concentration (LC50) value was calculated as the concentration of tested sample resulting in a 50% reduction of absorbance compared to untreated cells. Selectivity index (SI) values were calculated against the MIC using the formula: […]

Data set [13] concerns Caco2 cells. Nature of the data set: in vitro. The following applies: Caco2. On the procedure: as §3
Data set [14] concerns E. coli. Details: method as in earlier work. The following applies: ref [70] Teffo et al.; cited from earlier work.
Data set [15] is described as follows: in vitro. The procedure: as §3
The source holds these as a separate data set.

Data set [16] deals with S. aureus. Details: method as in earlier work. The following applies: ref [70] Teffo et al.; cited from earlier work.
Data set [17] is described as follows: Cytotoxicity, MTT assay. It counts as cell-based. The following applies: human, C3A cells, read-out: Lethal concentration (LC50). Background: Formazan colour is commonly taken as a measure of viable cells.
Protocol: Different concentrations of the compounds ranging from 0.003 to 0.2 mg/mL were tested for cytotoxicity against three cell lines; Vero monkey kidney, C3A and Caco2. Vero cells were grown and maintained in MEM, supplemented with 0.1% gentamicin and 5% foetal calf serum, while Caco2 and C3A cells were grown and maintained in DMEM supplemented with 10% foetal calf serum, 1% non-essential amino acids and 1% penicillin-streptomycin. All cells were incubated in a 5% CO2 incubator at 37 °C. Doxorubicin chloride was used as positive control while 10% DMSO used in dissolving the test samples was used as the negative control. The 3-(4,5-dimethylthiazol)-2,5-diphenyl tetrazolium bromide (MTT) assay described by Mosmann [50] with modification by McGaw et al. [51] was used to determine the cytotoxicity of the test samples. The lethal concentration (LC50) value was calculated as the concentration of tested sample resulting in a 50% reduction of absorbance compared to untreated cells.
In data set [18] the test system is Pseudomonas aeruginosa (ATCC 27853). Nature of the data set: MIC, serial microdilution with INT. It counts as cell-based. The following applies: ATCC27853, P. aeruginosa, read-out: Minimum inhibitory concentration.
Excerpt: as §1, §2

Data set [19] relates to Enterococcus faecalis (ATCC 29212). Nature of the data set: MIC, serial microdilution with INT. It counts as cell-based. The note with it: ATCC29212, E. faecalis, read-out: Minimum inhibitory concentration.
Excerpt: as §1, §2

In brackets after ≈: the same amount, converted by molar mass. Like-named read-outs stand apart in the source and are kept apart here.

For the molecule `C[C@@H]1[C@H](O)[C@@H](C)/C=C/C=C/C=C/C=C/C=C/C=C/C=C/[C@H](O[C@@H]2O[C@H](C)[C@@H](O)[C@H](N)[C@@H]2O)C[C@@H]2O[C@](O)(C[C@@H](O)C[C@@H](O)[C@H](O)CC[C@@H](O)C[C@@H](O)CC(=O)O[C@H]1C)C[C@H](O)[C@H]2C(=O)O` [Amphotericin B, amphotericin B, reference compound], the MIC was 70 ± 60 µg/mL (≈ 75.8 µM) in data set [1] (all time points of Table 3); 31 µg/mL (≈ 33.5 µM) in data set [2] (24 h); 63 µg/mL (≈ 68.2 µM) in data set [2] (48 h); 31 µg/mL (≈ 33.5 µM) in data set [3] (48 h); 63 µg/mL (≈ 68.2 µM) in data set [3] (72 h); 125 µg/mL (≈ 135 µM) in data set [3] (120 h). In addition, the MIC was determined as 125 µg/mL (≈ 135 µM) in [4] (72 h, 72 h) and 125 µg/mL (≈ 135 µM) in data set [4] (120 h, 120 h). The “Mean MIC” value in data set [1] (all time points of Table 3, listed as Amp B) was found to be 70 µg/mL.

On to `O=C(O)c1cn(C2CC2)c2cc(N3CCNCC3)c(F)cc2c1=O` [Ciprofloxacin, ciprofloxacin, reference compound], for which the MIC in data set [5] came out at 20 µg/mL (≈ 60.4 µM); in data set [6], 1 µg/mL (≈ 3.02 µM); in [7] it was 0.05 µg/mL (≈ 0.151 µM); in [8], 50 µg/mL (≈ 151 µM); in data set [9], 63 µg/mL (≈ 190 µM); in data set [10] it was 2 µg/mL (≈ 6.04 µM). For the same molecule, the Minimum inhibitory concentration in [8] amounted to 50 µg/mL (≈ 151 µM).

For `COc1ccc(-c2cc(=O)c3c(O)c(OC)c(O)cc3o2)cc1` [Compound 1, 5,7-dihydroxy-4′,6-dimethoxy-flavone], the “MIC, range or verdict over the strains tested” value in data set [11] is on record as “weak antimicrobial activity”. Moreover, the MIC in data set [5] is 250 µg/mL (≈ 795 µM); in [6], > 250 µg/mL; in [3] (48 h), 63 µg/mL (≈ 200 µM); in data set [3] (72 h), 250 µg/mL (≈ 795 µM); in data set [3] (120 h) it was > 2500 µg/mL; in data set [7], > 250 µg/mL. Further, the MIC in [4] (48 h, 48 h) was > 250 µg/mL; in data set [4] (72 h, 72 h), > 250 µg/mL; in data set [8], 250 µg/mL (≈ 795 µM); in [9] it was 250 µg/mL (≈ 795 µM); in data set [10] it was 250 µg/mL (≈ 795 µM). Further, the Minimum inhibitory concentration entry in [3] (48 h) was “good activity”.

With `COc1ccc(-c2oc3cc(O)cc(O)c3c(=O)c2O)cc1` [Compound 4, 3,5,7-trihydroxy-4′-methoxyflavone], the “MIC, range or verdict over the strains tested” value in data set [11] was “weak antimicrobial activity”. Besides, the CC50 in data set [12] is 193 µg/mL (≈ 643 µM); in data set [15] it was > 200 µg/mL. In addition, the “Selectivity index (LC50/MIC)” value in data set [13] (E. coli (1)) amounted to 1.544; in data set [13] (S. aureus), 0.772. The “MIC / antibacterial activity” value was 125 µg/mL (≈ 416 µM) in [14] and 250 µg/mL (≈ 833 µM) in [16]. For the same molecule, the MIC in [6] is > 250 µg/mL; in data set [3] (48 h), 250 µg/mL (≈ 833 µM); in data set [3] (72 h), > 250 µg/mL; in data set [3] (120 h), > 2500 µg/mL; in data set [7], > 250 µg/mL; in data set [4] (48 h, 48 h), > 250 µg/mL. Moreover, the MIC in [4] (72 h, 72 h) was > 250 µg/mL; in data set [8] it was > 250 µg/mL; in data set [9], 250 µg/mL (≈ 833 µM); in data set [10], 125 µg/mL (≈ 416 µM).

Consider `COc1cccc2c1C(=O)c1c(O)c3c(c(O)c1C2=O)C[C@@](O)(C(=O)CO)C[C@@H]3O[C@H]1C[C@H](N)[C@H](O)[C@H](C)O1` [Doxorubicin, Doxorubicin chloride, reference compound], for which, in data set [17], the CC50 worked out at 3.3 µg/mL.

Turning to `CNC(C)C1CCC(N)C(OC2C(N)CC(N)C(OC3OCC(C)(O)C(NC)C3O)C2O)O1` (stereo not shown) [Gentamicin, gentamicin, reference compound], the CC50 in data set [12] and in data set [15] was > 200 µg/mL in each case. Besides, the MIC was 60 ± 110 µg/mL (≈ 126 µM) in [5]; 8 µg/mL (≈ 16.8 µM) in data set [6]; > 2500 µg/mL in [3] (120 h); 31 µg/mL (≈ 64.9 µM) in [7]; 8 µg/mL (≈ 16.8 µM) in [18]; 500 µg/mL (≈ 1050 µM) in [8]. Besides, the values for the MIC in data set [9], in data set [19] and in data set [10] were 8 µg/mL (≈ 16.8 µM), 500 µg/mL (≈ 1050 µM) and 20 µg/mL (≈ 41.9 µM), respectively. For the same molecule, the “Mean MIC” value in [5] was determined as 60 µg/mL. The Minimum inhibitory concentration came to 250 µg/mL (≈ 523 µM) in data set [8] and 16 µg/mL (≈ 33.5 µM) in data set [10] (E. coli (1)).
